# Data reported in patent US9573947B2, “Salt of pyrazoloquinoline derivative, and crystal thereof” (Eisai R&D Management Co., Ltd., priority 2013, dated 2017).
# Columns and labels:
# hippocampal cGMP = test: Effect on rodent hippocampal cGMP; assay type: in vivo, LE male rats; conditions: LE rats, 10 mg/kg, 1 hour post-administration; relative to vehicle group; compound synthesized according to Reference Example 1
# Description: Test compounds were administered to SD male rats (CHARLES RIVER LABORATORIES JAPAN, INC.) or LE male rats (Institute for Animal Reproduction (foundation)). Then a microwave treatment was performed under pentobarbital anesthesia, and the hippocampus were isolated, subjected to measurement of their wet weights, then frozen in liquid nitrogen and stored at −80° C. In the measurement of cGMP in the hippocampus, a 0.5 M perchloric acid/1 mM EDTA solution was added so that the wet weight would constitute 5% (w/v), and the mixture was homogenized. After the homogenization, the homogenate was centrifuged (10000 rpm, 15 min), and the supernatant was collected. The collected supernatant was neutralized with a 2 M potassium hydrogen carbonate solution and centrifuged (13000 rpm, 10 min) The cGMP concentration in the supernatant was measured according to the non-acetylation EIA procedure of cGMP EIA kit (GE Healthcare). The results were calculated using the following formula as an increase (C) in the amount of cGMP in the test compound-administered group (B) relative to the amount of cGMP in the vehicle-administered group (A). cGMP increase(C)=[(B)−(A)]/(A)×100(%) In the case of the compound (I) synthesized according to Reference Example 1, the cGMP increase was 58% at 1 hour post-administration of a dose of 10 mg/kg to LE rats.
# cerebrospinal fluid cGMP = test: Effect on rodent cerebrospinal fluid cGMP; assay type: in vivo, Long-Evans (LE) male rats; conditions: LE rats, 10 mg/kg, 1 hour post-administration; relative to vehicle group; compound synthesized according to Reference Example 1
# Description: Test compounds were administered to ICR male mice (CHARLES RIVER LABORATORIES JAPAN, INC.), Sprague-Dawley (SD) male rats (CHARLES RIVER LABORATORIES JAPAN, INC.) or Long-Evans (LE) male rats (Institute for Animal Reproduction (general incorporated foundation)), and then cerebrospinal fluid was collected under pentobarbital anesthesia and stored at −20° C. Measurement of cGMP in cerebrospinal fluid was performed according to the acetylation EIA procedure of cGMP EIA kit (GE Healthcare) or the non-acetylation procedure of cGMP EIA kit (Cayman Chemical).
# [1] = Test on oral absorption characteristics in dogs; assay type: in vivo, beagle dogs; conditions: oral capsule, 100 mg in terms of the free form; for AREA UNDER PLASMA CONCENTRATION-TIME CURVE, MEAN: mean of 4 beagle dogs
# [2] = Dissolution test in fasted state simulated intestinal fluid; assay type: physicochemical; conditions: fasted state simulated intestinal fluid pH 6.5, 37° C., 50 rpm, in terms of compound (I)
# Description: Each of compound (I) (50 mg), the compound of Example 1 (30 mg) and the compound of Example 2 (30 mg) was filled into a hydroxypropyl methylcellulose capsule, together with an equal weight of lactose hydrate. A 708-DS from Agilent Technologies was equipped with small stirring paddles and small vessels, and used as a dissolution test apparatus. Each drug-filled capsule was added to 50 ml of fasted state simulated intestinal fluid (a phosphate buffer pH 6.5 containing 0.75 mM lecithin and 3 mM sodium taurocholate) which had been warmed to 37° C. The drug was dissolved by rotating the stirring paddle at a speed of 50 rpm. The dissolved solution was sampled over time and the drug concentrations were measured by HPLC. Such dissolution tests using fasted state simulated intestinal fluid are often used to evaluate the dissolution and absorption characteristics of drugs (e.g., Takano et al., “Oral absorption of poorly water-soluble drugs: computer simulation of fraction absorbed in humans from a miniscale dissolution test”, Pharm Res., vol. 23, pp. 1144-1156, 2006). The results were shown in Table 1 and the graph in FIG. 12.
smiles,measurement,setting,value
"COc1ncc(C)c(-c2ccc3c(c2)[nH]c(=O)c2cnn([C@H]4CCOC4)c23)c1C [compound (I), (S)-7-(2-methoxy-3,5-dimethylpyridin-4-yl)-1-(tetrahydrofuran-3-yl)-1H-pyrazolo[4,3-c]quinolin-4(5H)-one]",cGMP increase in hippocampus,hippocampal cGMP,58%
same,cGMP increase in cerebrospinal fluid,cerebrospinal fluid cGMP,274%
same,PLASMA CONCENTRATION,"[1]; Dog 1, 0.25 hours",BQL
same,PLASMA CONCENTRATION,"[1]; Dog 1, 0.5 hours",5 ng/mL
same,PLASMA CONCENTRATION,"[1]; Dog 1, 1 hour",55 ng/mL
same,PLASMA CONCENTRATION,"[1]; Dog 1, 2 hours",94 ng/mL
same,PLASMA CONCENTRATION,"[1]; Dog 1, 4 hours",64 ng/mL
same,PLASMA CONCENTRATION,"[1]; Dog 1, 6 hours",45 ng/mL
same,PLASMA CONCENTRATION,"[1]; Dog 1, 8 hours",43 ng/mL
same,PLASMA CONCENTRATION,"[1]; Dog 1, 24 hours",234 ng/mL
same,AREA UNDER PLASMA CONCENTRATION-TIME CURVE,[1]; Dog 1,2660 ng·h/mL
same,PLASMA CONCENTRATION,"[1]; Dog 2, 0.25 hours",BQL
same,PLASMA CONCENTRATION,"[1]; Dog 2, 0.5 hours",29 ng/mL
same,PLASMA CONCENTRATION,"[1]; Dog 2, 1 hour",67 ng/mL
same,PLASMA CONCENTRATION,"[1]; Dog 2, 2 hours",61 ng/mL
same,PLASMA CONCENTRATION,"[1]; Dog 2, 4 hours",51 ng/mL
same,PLASMA CONCENTRATION,"[1]; Dog 2, 6 hours",45 ng/mL
same,PLASMA CONCENTRATION,"[1]; Dog 2, 8 hours",41 ng/mL
same,PLASMA CONCENTRATION,"[1]; Dog 2, 24 hours",7 ng/mL
same,AREA UNDER PLASMA CONCENTRATION-TIME CURVE,[1]; Dog 2,770 ng·h/mL
same,PLASMA CONCENTRATION,"[1]; Dog 3, 0.25 hours",BQL
same,PLASMA CONCENTRATION,"[1]; Dog 3, 0.5 hours",34 ng/mL
same,PLASMA CONCENTRATION,"[1]; Dog 3, 1 hour",142 ng/mL
same,PLASMA CONCENTRATION,"[1]; Dog 3, 2 hours",133 ng/mL
same,PLASMA CONCENTRATION,"[1]; Dog 3, 4 hours",104 ng/mL
same,PLASMA CONCENTRATION,"[1]; Dog 3, 6 hours",77 ng/mL
same,PLASMA CONCENTRATION,"[1]; Dog 3, 24 hours",9 ng/mL
same,AREA UNDER PLASMA CONCENTRATION-TIME CURVE,[1]; Dog 3,1430 ng·h/mL
same,PLASMA CONCENTRATION,"[1]; Dog 4, 0.25 hours",BQL
same,PLASMA CONCENTRATION,"[1]; Dog 4, 0.5 hours",BQL
same,PLASMA CONCENTRATION,"[1]; Dog 4, 1 hour",17 ng/mL
same,PLASMA CONCENTRATION,"[1]; Dog 4, 24 hours",28 ng/mL
same,AREA UNDER PLASMA CONCENTRATION-TIME CURVE,[1]; Dog 4,2680 ng·h/mL
same,concentration at 8 h,"[1]; beagle, dog, plasma, po, 100 mg, Dog 3, 8 hours",74 ng/mL
same,concentration at 2 h,"[1]; beagle, dog, plasma, po, 100 mg, Dog 4, 2 hours",227 ng/mL
same,concentration at 4 h,"[1]; beagle, dog, plasma, po, 100 mg, Dog 4, 4 hours",208 ng/mL
same,concentration at 6 h,"[1]; beagle, dog, plasma, po, 100 mg, Dog 4, 6 hours",164 ng/mL
same,concentration at 8 h,"[1]; beagle, dog, plasma, po, 100 mg, Dog 4, 8 hours",151 ng/mL
same,concentration at 24 h,"[1]; beagle, dog, plasma, po, 100 mg, mean of dogs, 24 hours",69 ng/mL
same,"AREA UNDER PLASMA CONCENTRATION-TIME CURVE, MEAN",[1],1880 ± 950 ng·h/mL
same,"AREA UNDER PLASMA CONCENTRATION-TIME CURVE, MEAN",[1]; listed as COMPOUND (I),1880 ng·h/mL
same,PLASMA CONCENTRATION MEAN,"[1]; mean of dogs, 0.5 hours",23 ng/mL
same,PLASMA CONCENTRATION MEAN,"[1]; mean of dogs, 1 hour",70 ng/mL
same,PLASMA CONCENTRATION MEAN,"[1]; mean of dogs, 2 hours",129 ng/mL
same,PLASMA CONCENTRATION MEAN,"[1]; mean of dogs, 4 hours",106 ng/mL
same,PLASMA CONCENTRATION MEAN,"[1]; mean of dogs, 6 hours",83 ng/mL
same,PLASMA CONCENTRATION MEAN,"[1]; mean of dogs, 8 hours",77 ng/mL
same,CONCENTRATION (dissolution),[2]; 6 minutes,100 ng/mL
same,CONCENTRATION (dissolution),[2]; 10 minutes,300 ng/mL
same,CONCENTRATION (dissolution),[2]; 15 minutes,1800 ng/mL
same,CONCENTRATION (dissolution),[2]; 20 minutes,3200 ng/mL
same,CONCENTRATION (dissolution),[2]; 30 minutes,4400 ng/mL
same,CONCENTRATION (dissolution),[2]; 60 minutes,5000 ng/mL
same,CONCENTRATION (dissolution),[2]; 90 minutes,5200 ng/mL
same,CONCENTRATION (dissolution),[2]; 120 minutes,5100 ng/mL
same,CONCENTRATION (dissolution),[2]; 180 minutes,5200 ng/mL
same,CONCENTRATION (dissolution),[2]; 240 minutes,5400 ng/mL
